From patent US20030195246A1, “Seamless soft capsule preparations containing dihydrobenzofuran derivatives” (priority 2000, published 2003)

Test: BO-653 stability test in different fats and oils (accelerated test, HPLC residue rate)
Format: physicochemical
Details: 80° C. for 17 hours
Experimental: A test was conducted on the effect of oxygen on decomposition of BO-653 (4,6-ditert-butyl-2,2-di-n-pentyl-5-hydroxy-2,3-dihydrobenzofuran) and its stability in various fats and oils. There were prepared samples consisting of 70 mg solutions of BO-653 in different fats and oils (soybean oil (product of Wako Pure Chemicals Industries, Ltd.), olive oil (product of Wako Pure Chemicals Industries, Ltd.), MCT (ODO-C: product of The Nisshin oil Mills, Ltd.), tricaprilin (product of Wako Pure Chemicals Industries, Ltd.) and linoleic acid (product of NOF Corp.)), each in a proportion of 50 wt % in a 5 cc glass vial, as well as a sample of 35 mg BO-653 in a 5 cc glass vial. An accelerated test was conducted at 80° C. for 17 hours, in a case with sealing of the head space of each sample vial after argon substitution and a case with sealing without argon substitution, and the residue rate was determined by HPLC measurement of the BO-653 content after the test.

stability of BO-653 (no argon substitution (presence of oxygen), 50 wt % in soybean oil, compared with other fats and oils): highest stability
residue rate (with argon substitution (absence of oxygen), any of the media, including BO-653 alone): virtually no reduction in residue rate
SMILES: CCCCCC1(CCCCC)Cc2c(cc(C(C)(C)C)c(O)c2C(C)(C)C)O1 [BO-653, 4,6-ditert-butyl-2,2-di-n-pentyl-5-hydroxy-2,3-dihydrobenzofuran]
residue rate (no argon substitution (presence of oxygen), all of the samples): lower with no argon substitution than with argon substitution
